# In US8802597B2, “Herbicidal pyrimidines” (E I du Pont de Nemours and Company, priority 2003, dated 2014):
# What was measured:
# Type in all cases: in vivo
# [1] = test system: barnyardgrass (Echinochloa crus-galli); test: Test A pre/postemergence
# Outline: (§1)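 Visual injury scored 0–100 (0 = no effect, 100 = complete control) against untreated controls after about ten days in the greenhouse. Compounds, formulated in non-phytotoxic solvent plus surfactant, were applied preemergence as a directed soil spray and postemergence at the 1- to 2-leaf stage (2–10 cm).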
# [2] = test system: crabgrass (Digitaria sanguinalis); test: Test A pre/postemergence
# Outline: as §1
# [3] = test system: giant foxtail (Setaria faberi); test: Test A pre/postemergence
# Outline: as §1
# [4] = test system: morningglory (Ipomoea spp.); test: Test A pre/postemergence
# Outline: as §1
# [5] = test system: redroot pigweed (Amaranthus retroflexus); test: Test A pre/postemergence
# Outline: as §1
# [6] = test system: velvetleaf (Abutilon theophrasti); test: Test A pre/postemergence
# Outline: as §1
# [7] = test system: barnyardgrass (Echinochloa crus-galli); test: Test E flooded paddy water application; details: Flood, 21 days, scale 0 to 100 (0 no effect, 100 complete control)
# Source text: (§2) Three plastic pots (ca. 16-cm diameter) per rate were partially filled with sterilized Tama silt loam soil comprising a 35:50:15 ratio of sand, silt and clay and 2.6% organic matter. Separate plantings for each of the three pots were as follows. Seeds from the U.S. of ducksalad (Heteranthera limosa), smallflower umbrella sedge (Cyperus difformis) and purple redstem (Ammannia coccinea), were planted into one 16-cm pot for each rate. Seeds from the U.S. of rice flatsedge (Cyperus iria), bearded (brdd.) sprangletop (Leptochloa fusca ssp. fascicularis), one stand of 9 or 10 water seeded rice seedlings (Oryza sativa cv. ‘Japonica-M202’), and one stand of 6 transplanted rice seedlings (Oryza sativa cv. ‘Japonica-M202’) were planted into one 16-cm pot for each rate. Seeds from the U.S. of barnyardgrass (Echinochloa crus-galli), late watergrass (Echinochloa oryzicola), early watergrass (Echinochloa oryzoides) and junglerice (Echinochloa colona) were planted into one 16-cm pot for each rate. Plantings were sequential so that crop and weed species were at the 2.0 to 2.5-leaf stage at time of treatment.
# (§3) Potted plants were grown in a greenhouse with day/night temperature settings of 29.5/26.7° C., and supplemental balanced lighting was provided to maintain a 16-hour photoperiod. Test pots were maintained in the greenhouse until test completion.
# (§4) At time of treatment, test pots were flooded to 3 cm above the soil surface, treated by application of test compounds directly to the paddy water, and then maintained at that water depth for the duration of the test. Effects of treatments on rice and weeds were visually evaluated by comparison to untreated controls after 21 days. Plant response ratings, summarized in Table E, are based on a scale of 0 to 100 where 0 is no effect and 100 is complete control. A dash (-) response means no test result.
# [8] = test system: bearded (brdd.) sprangletop (Leptochloa fusca ssp. fascicularis); test: Test E flooded paddy water application; details: Flood, 21 days, scale 0 to 100 (0 no effect, 100 complete control)
# Source text: as §2, §3, §4
# [9] = test system: ducksalad (Heteranthera limosa); test: Test E flooded paddy water application; details: Flood, 21 days, scale 0 to 100 (0 no effect, 100 complete control)
# Source text: as §2, §3, §4
# [10] = test system: early watergrass (Echinochloa oryzoides); test: Test E flooded paddy water application; details: Flood, 21 days, scale 0 to 100 (0 no effect, 100 complete control)
# Source text: as §2, §3, §4
# [11] = test system: junglerice (Echinochloa colona); test: Test E flooded paddy water application; details: Flood, 21 days, scale 0 to 100 (0 no effect, 100 complete control)
# Source text: as §2, §3, §4
# [12] = test system: late watergrass (Echinochloa oryzicola); test: Test E flooded paddy water application; details: Flood, 21 days, scale 0 to 100 (0 no effect, 100 complete control)
# Source text: as §2, §3, §4
# [13] = test system: purple redstem (Ammannia coccinea); test: Test E flooded paddy water application; details: Flood, 21 days, scale 0 to 100 (0 no effect, 100 complete control)
# Source text: as §2, §3, §4
# [14] = test system: rice flatsedge (Cyperus iria); test: Test E flooded paddy water application; details: Flood, 21 days, scale 0 to 100 (0 no effect, 100 complete control)
# Source text: as §2, §3, §4
# [15] = test system: smallflower umbrella sedge (Cyperus difformis); test: Test E flooded paddy water application; details: Flood, 21 days, scale 0 to 100 (0 no effect, 100 complete control)
# Source text: as §2, §3, §4
# [16] = test system: transplanted rice seedlings (Oryza sativa cv. ‘Japonica-M202’); test: Test E flooded paddy water application; details: Flood, 21 days, scale 0 to 100 (0 no effect, 100 complete control)
# Source text: as §2, §3, §4
# [17] = test system: water seeded rice seedlings (Oryza sativa cv. ‘Japonica-M202’); test: Test E flooded paddy water application; details: Flood, 21 days, scale 0 to 100 (0 no effect, 100 complete control)
# Source text: as §2, §3, §4
# [18] = Postemergence, 125 g ai/ha, 0 to 100 scale (0 no effect, 100 complete control)
# [19] = Postemergence, 500 g ai/ha, 0 to 100 scale (0 no effect, 100 complete control)
# [20] = Preemergence, 125 g ai/ha, 0 to 100 scale where 0 is no effect and 100 is complete control, approximately ten days
# [21] = Preemergence, 500 g ai/ha, 0 to 100 scale where 0 is no effect and 100 is complete control, approximately ten days
structure (smiles),measurement,setting,value
CCOC(=O)c1nc(-c2ccc(C)cc2)nc(N)c1Cl [Compound 62],"Plant response rating, Barnyardgrass",[1]; [18],15
same,"Plant response rating, Barnyardgrass",[1]; [19],80
same,"Plant response rating, Barnyardgrass",[1]; [20],0
same,"Plant response rating, Barnyardgrass",[1]; [21],45
same,"Plant response rating, Crabgrass",[2]; [18],0
same,"Plant response rating, Crabgrass",[2]; [19],35
same,"Plant response rating, Crabgrass",[2]; [20],0
same,"Plant response rating, Crabgrass",[2]; [21],60
same,"Plant response rating, Foxtail, Giant",[3]; [18],0
same,"Plant response rating, Foxtail, Giant",[3]; [19],80
same,"Plant response rating, Foxtail, Giant",[3]; [20],0
same,"Plant response rating, Foxtail, Giant",[3]; [21],0
same,"Plant response rating, Morningglory",[4]; [18],10
same,"Plant response rating, Morningglory",[4]; [19],35
same,"Plant response rating, Morningglory",[4]; [20],0
same,"Plant response rating, Morningglory",[4]; [21],35
same,"Plant response rating, Pigweed",[5]; [18],30
same,"Plant response rating, Pigweed",[5]; [19],60
same,"Plant response rating, Pigweed",[5]; [20],0
same,"Plant response rating, Pigweed",[5]; [21],75
same,"Plant response rating, Velvetleaf",[6]; [18],90
same,"Plant response rating, Velvetleaf",[6]; [19],95
same,"Plant response rating, Velvetleaf",[6]; [20],0
same,"Plant response rating, Velvetleaf",[6]; [21],75
same,Barnyardgrass plant response rating,[7]; 32 g ai/ha,0
same,Barnyardgrass plant response rating,[7]; 64 g ai/ha,0
same,Barnyardgrass plant response rating,[7]; 125 g ai/ha,0
same,Barnyardgrass plant response rating,[7]; 250 g ai/ha,50
same,Barnyardgrass plant response rating,[7]; 500 g ai/ha,100
same,"Sprangletop, Brdd. plant response rating",[8]; 32 g ai/ha,0
same,"Sprangletop, Brdd. plant response rating",[8]; 64 g ai/ha,0
same,"Sprangletop, Brdd. plant response rating",[8]; 125 g ai/ha,30
same,"Sprangletop, Brdd. plant response rating",[8]; 250 g ai/ha,45
same,"Sprangletop, Brdd. plant response rating",[8]; 500 g ai/ha,75
same,Ducksalad plant response rating,[9]; 32 g ai/ha,100
same,Ducksalad plant response rating,[9]; 64 g ai/ha,100
same,Ducksalad plant response rating,[9]; 125 g ai/ha,100
same,Ducksalad plant response rating,[9]; 250 g ai/ha,100
same,Ducksalad plant response rating,[9]; 500 g ai/ha,100
same,"Watergrass, Early plant response rating",[10]; 32 g ai/ha,0
same,"Watergrass, Early plant response rating",[10]; 64 g ai/ha,0
same,"Watergrass, Early plant response rating",[10]; 125 g ai/ha,0
same,"Watergrass, Early plant response rating",[10]; 250 g ai/ha,0
same,"Watergrass, Early plant response rating",[10]; 500 g ai/ha,0
same,Junglerice plant response rating,[11]; 32 g ai/ha,20
same,Junglerice plant response rating,[11]; 64 g ai/ha,30
same,Junglerice plant response rating,[11]; 125 g ai/ha,40
same,Junglerice plant response rating,[11]; 250 g ai/ha,50
same,Junglerice plant response rating,[11]; 500 g ai/ha,65
same,"Watergrass, Late plant response rating",[12]; 32 g ai/ha,0
same,"Watergrass, Late plant response rating",[12]; 64 g ai/ha,20
same,"Watergrass, Late plant response rating",[12]; 125 g ai/ha,20
same,"Watergrass, Late plant response rating",[12]; 250 g ai/ha,20
same,"Watergrass, Late plant response rating",[12]; 500 g ai/ha,20
same,Redstem plant response rating,[13]; 32 g ai/ha,75
same,Redstem plant response rating,[13]; 64 g ai/ha,85
same,Redstem plant response rating,[13]; 125 g ai/ha,85
same,Redstem plant response rating,[13]; 250 g ai/ha,95
same,Redstem plant response rating,[13]; 500 g ai/ha,100
same,"Flatsedge, Rice plant response rating",[14]; 32 g ai/ha,0
same,"Flatsedge, Rice plant response rating",[14]; 64 g ai/ha,0
same,"Flatsedge, Rice plant response rating",[14]; 125 g ai/ha,45
same,"Flatsedge, Rice plant response rating",[14]; 250 g ai/ha,65
same,"Flatsedge, Rice plant response rating",[14]; 500 g ai/ha,100
same,"Sedge, Umbrella plant response rating",[15]; 32 g ai/ha,70
same,"Sedge, Umbrella plant response rating",[15]; 64 g ai/ha,80
same,"Sedge, Umbrella plant response rating",[15]; 125 g ai/ha,95
same,"Sedge, Umbrella plant response rating",[15]; 250 g ai/ha,100
same,"Sedge, Umbrella plant response rating",[15]; 500 g ai/ha,100
same,"Rice, Transplanted plant response rating",[16]; 32 g ai/ha,0
same,"Rice, Transplanted plant response rating",[16]; 64 g ai/ha,0
same,"Rice, Transplanted plant response rating",[16]; 125 g ai/ha,0
same,"Rice, Transplanted plant response rating",[16]; 250 g ai/ha,0
same,"Rice, Transplanted plant response rating",[16]; 500 g ai/ha,30
same,"Rice, Water Seeded plant response rating",[17]; 32 g ai/ha,0
same,"Rice, Water Seeded plant response rating",[17]; 64 g ai/ha,0
same,"Rice, Water Seeded plant response rating",[17]; 125 g ai/ha,0
same,"Rice, Water Seeded plant response rating",[17]; 250 g ai/ha,10
same,"Rice, Water Seeded plant response rating",[17]; 500 g ai/ha,60
